# Data from ChEMBL document CHEMBL2021812, “Aryltriflates as a Neglected Moiety in Medicinal Chemistry: A Case Study from a Lead Optimization of CXCL8 Inhibitors” (ACS Med Chem Lett, 2011).
# Test system: not listed separately
# Assay: Metabolic stability in rat liver microsomes assessed as compound remaining at 1 uM preincubated for 10 mins measured after 30 mins
# Type: ADME, Microsome
# Conditions: read-out: Stability
row,Compound,"remaining at 0.5 h, 1 µM"
1,CC(C)ONC(=O)[C@H](C)c1ccc(OS(=O)(=O)C(F)(F)F)cc1,75%
2,C[C@@H](C(N)=O)c1ccc(OS(=O)(=O)C(F)(F)F)cc1,80%

# Test system: not listed separately
# Assay: Metabolic stability in rat plasma assessed as compound remaining at 1 uM after 1 hr
# Type: ADME, cell-free
# Conditions: read-out: Stability
row,Compound,"remaining at 1 h, 1 µM"
1,CC(C)ONC(=O)[C@H](C)c1ccc(OS(=O)(=O)C(F)(F)F)cc1,85%

# Target: CYP2C19 (Homo sapiens, UniProt P33261)
# Assay: Inhibition of CYP2C19 using DBF as substrate at 10 uM
# Type: ADME
# Conditions: probe DBF
# Chain of CYP2C19 (P33261 whole entry): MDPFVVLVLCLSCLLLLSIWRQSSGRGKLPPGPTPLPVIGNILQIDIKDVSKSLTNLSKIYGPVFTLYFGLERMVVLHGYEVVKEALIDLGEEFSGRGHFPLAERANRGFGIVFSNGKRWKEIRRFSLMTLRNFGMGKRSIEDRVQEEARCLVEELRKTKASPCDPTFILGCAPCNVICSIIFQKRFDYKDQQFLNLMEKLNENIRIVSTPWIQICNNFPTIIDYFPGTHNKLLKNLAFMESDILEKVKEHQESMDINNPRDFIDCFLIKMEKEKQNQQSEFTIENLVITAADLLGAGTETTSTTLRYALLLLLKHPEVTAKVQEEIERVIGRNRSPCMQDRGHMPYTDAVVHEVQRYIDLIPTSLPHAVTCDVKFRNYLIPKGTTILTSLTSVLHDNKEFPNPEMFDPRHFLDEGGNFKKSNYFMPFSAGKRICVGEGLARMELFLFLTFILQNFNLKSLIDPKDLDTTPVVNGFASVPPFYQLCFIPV
row,Compound,inhibition at 10 µM
1,C[C@@H](C(=O)Nc1nc(C(F)(F)F)co1)c1ccc(OS(=O)(=O)C(F)(F)F)cc1,94%
2,C[C@@H](C(=O)Nc1nc(C(F)(F)F)cs1)c1ccc(OS(=O)(=O)C(F)(F)F)cc1,94%
3,C[C@@H](C(=O)Nc1nncs1)c1ccc(OS(=O)(=O)C(F)(F)F)cc1,70%

# Target: CYP2C9 (Homo sapiens, UniProt P11712)
# Assay: Inhibition of CYP2C9 using 7MFC as substrate at 10 uM
# Type: ADME
# Conditions: probe 7MFC
# Chain of CYP2C9 (P11712 whole entry): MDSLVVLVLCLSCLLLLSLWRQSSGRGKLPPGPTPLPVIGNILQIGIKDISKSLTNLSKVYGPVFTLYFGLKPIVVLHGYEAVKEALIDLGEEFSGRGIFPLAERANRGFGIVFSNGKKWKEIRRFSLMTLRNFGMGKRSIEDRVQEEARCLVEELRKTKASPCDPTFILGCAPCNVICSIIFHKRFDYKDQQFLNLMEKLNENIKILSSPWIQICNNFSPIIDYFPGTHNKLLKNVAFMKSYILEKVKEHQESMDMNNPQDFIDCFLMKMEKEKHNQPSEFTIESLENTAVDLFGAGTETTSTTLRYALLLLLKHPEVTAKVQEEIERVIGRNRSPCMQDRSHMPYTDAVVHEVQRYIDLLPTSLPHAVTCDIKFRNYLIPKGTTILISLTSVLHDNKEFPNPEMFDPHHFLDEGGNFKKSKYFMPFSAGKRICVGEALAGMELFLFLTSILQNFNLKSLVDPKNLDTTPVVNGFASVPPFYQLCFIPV
row,Compound,inhibition at 10 µM
1,C[C@@H](C(=O)Nc1nc(C(F)(F)F)co1)c1ccc(OS(=O)(=O)C(F)(F)F)cc1,87%
2,C[C@@H](C(=O)Nc1nc(C(F)(F)F)cs1)c1ccc(OS(=O)(=O)C(F)(F)F)cc1,73%
3,C[C@@H](C(=O)Nc1nncs1)c1ccc(OS(=O)(=O)C(F)(F)F)cc1,50%

# Target: CYP3A4 (Homo sapiens, UniProt P08684)
# Assay: Inhibition of CYP3A4 using BFC as substrate at 10 uM
# Type: ADME
# Conditions: probe BFC
# Chain of CYP3A4 (P08684 whole entry): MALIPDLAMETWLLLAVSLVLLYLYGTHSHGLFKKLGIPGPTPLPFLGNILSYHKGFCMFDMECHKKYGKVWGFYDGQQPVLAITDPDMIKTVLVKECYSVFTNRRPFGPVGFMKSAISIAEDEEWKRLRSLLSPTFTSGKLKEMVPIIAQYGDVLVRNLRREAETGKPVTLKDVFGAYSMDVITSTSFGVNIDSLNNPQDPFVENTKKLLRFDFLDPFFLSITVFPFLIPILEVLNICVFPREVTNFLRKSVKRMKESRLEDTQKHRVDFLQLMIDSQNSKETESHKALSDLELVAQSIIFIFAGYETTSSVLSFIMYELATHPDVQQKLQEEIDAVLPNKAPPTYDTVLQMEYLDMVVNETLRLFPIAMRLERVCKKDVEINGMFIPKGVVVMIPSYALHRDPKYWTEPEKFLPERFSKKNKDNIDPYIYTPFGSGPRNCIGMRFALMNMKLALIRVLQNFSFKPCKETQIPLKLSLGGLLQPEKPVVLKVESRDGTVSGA
row,Compound,inhibition at 10 µM
1,C[C@@H](C(=O)Nc1nc(C(F)(F)F)co1)c1ccc(OS(=O)(=O)C(F)(F)F)cc1,82%
2,C[C@@H](C(=O)Nc1nc(C(F)(F)F)cs1)c1ccc(OS(=O)(=O)C(F)(F)F)cc1,52%
3,C[C@@H](C(=O)Nc1nncs1)c1ccc(OS(=O)(=O)C(F)(F)F)cc1,66%

# Target: CYP2D6 (Homo sapiens, UniProt P10635)
# Assay: Inhibition of CYP2D6 using AMMC as substrate at 10 uM
# Type: ADME
# Conditions: probe AMMC
# Chain of CYP2D6 (P10635 whole entry): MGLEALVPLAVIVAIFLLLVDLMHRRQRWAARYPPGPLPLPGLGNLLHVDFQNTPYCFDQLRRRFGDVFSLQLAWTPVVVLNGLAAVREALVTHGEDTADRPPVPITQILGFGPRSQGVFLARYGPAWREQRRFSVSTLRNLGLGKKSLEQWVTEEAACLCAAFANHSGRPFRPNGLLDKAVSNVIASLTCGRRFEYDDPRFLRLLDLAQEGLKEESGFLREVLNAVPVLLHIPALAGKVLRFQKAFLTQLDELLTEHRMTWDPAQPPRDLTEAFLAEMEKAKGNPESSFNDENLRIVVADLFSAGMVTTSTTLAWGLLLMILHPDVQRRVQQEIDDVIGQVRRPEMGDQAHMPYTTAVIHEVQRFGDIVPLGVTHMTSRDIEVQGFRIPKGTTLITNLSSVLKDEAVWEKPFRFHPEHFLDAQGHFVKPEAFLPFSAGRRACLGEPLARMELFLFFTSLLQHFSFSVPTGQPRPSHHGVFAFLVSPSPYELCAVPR
row,Compound,inhibition at 10 µM
1,C[C@@H](C(=O)Nc1nc(C(F)(F)F)co1)c1ccc(OS(=O)(=O)C(F)(F)F)cc1,38%
2,C[C@@H](C(=O)Nc1nc(C(F)(F)F)cs1)c1ccc(OS(=O)(=O)C(F)(F)F)cc1,56%
3,C[C@@H](C(=O)Nc1nncs1)c1ccc(OS(=O)(=O)C(F)(F)F)cc1,40%

# Target: T1, CYP1A2 (Homo sapiens, UniProt P05177)
# T1 sequence (P05177 whole entry): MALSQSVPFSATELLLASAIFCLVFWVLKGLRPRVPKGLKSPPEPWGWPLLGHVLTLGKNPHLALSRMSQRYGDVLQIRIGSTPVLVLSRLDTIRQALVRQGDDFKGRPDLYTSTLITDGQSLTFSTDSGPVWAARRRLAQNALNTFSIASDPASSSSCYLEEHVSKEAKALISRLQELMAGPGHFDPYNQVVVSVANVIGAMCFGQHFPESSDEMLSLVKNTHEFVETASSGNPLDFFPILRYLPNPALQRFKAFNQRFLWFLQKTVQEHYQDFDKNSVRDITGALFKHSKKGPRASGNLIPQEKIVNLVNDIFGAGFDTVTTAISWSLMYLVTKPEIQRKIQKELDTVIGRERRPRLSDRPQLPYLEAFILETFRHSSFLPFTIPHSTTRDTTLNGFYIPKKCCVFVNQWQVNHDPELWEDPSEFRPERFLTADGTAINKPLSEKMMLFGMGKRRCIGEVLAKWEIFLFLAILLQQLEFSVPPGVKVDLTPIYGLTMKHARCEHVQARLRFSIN
# Assay: Inhibition of CYP1A2 using CEC as substrate at 10 uM
# Type: ADME
# Conditions: probe CEC
row,Compound,inhibition at 10 µM
1,C[C@@H](C(=O)Nc1nc(C(F)(F)F)co1)c1ccc(OS(=O)(=O)C(F)(F)F)cc1,< 5%
2,C[C@@H](C(=O)Nc1nc(C(F)(F)F)cs1)c1ccc(OS(=O)(=O)C(F)(F)F)cc1,14%
3,C[C@@H](C(=O)Nc1nncs1)c1ccc(OS(=O)(=O)C(F)(F)F)cc1,< 5%

# Target: T2, C-X-C chemokine receptor type 2 (Homo sapiens) (UniProt P25025)
# T2 sequence (whole entry): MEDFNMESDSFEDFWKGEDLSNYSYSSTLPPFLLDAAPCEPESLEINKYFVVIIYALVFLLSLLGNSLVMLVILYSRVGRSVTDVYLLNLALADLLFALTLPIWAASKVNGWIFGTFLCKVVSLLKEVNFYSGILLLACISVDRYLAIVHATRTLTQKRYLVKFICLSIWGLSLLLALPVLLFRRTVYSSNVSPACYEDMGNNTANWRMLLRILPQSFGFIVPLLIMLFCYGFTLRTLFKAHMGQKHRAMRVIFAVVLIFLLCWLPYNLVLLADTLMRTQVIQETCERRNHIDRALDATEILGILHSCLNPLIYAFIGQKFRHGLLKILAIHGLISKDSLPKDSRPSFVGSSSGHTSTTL
# Assay: Inhibition of CXCR2 in human polymorphonucleate cells assessed as inhibition of CXCL1-induced chemotaxis at 10^-8 M incubated for 15 mins prior to CXCL1-induction measured after 45 mins
# Conditions: not given
row,Compound,inhibition
1,C[C@@H](C(=O)Nc1nc(C(F)(F)F)co1)c1ccc(OS(=O)(=O)C(F)(F)F)cc1,50%
2,C[C@@H](C(=O)Nc1nc(C(F)(F)F)cs1)c1ccc(OS(=O)(=O)C(F)(F)F)cc1,55%
3,C[C@@H](C(=O)Nc1nncs1)c1ccc(OS(=O)(=O)C(F)(F)F)cc1,55%
4,CC(C)ONC(=O)[C@H](C)c1ccc(OS(=O)(=O)C(F)(F)F)cc1,38%
5,C[C@@H](C(N)=O)c1ccc(OS(=O)(=O)C(F)(F)F)cc1,56%

# Target: Interleukin-8 receptors, CXCR1/CXCR2 (Homo sapiens) (UniProt P25025+P25024)
# Assay: Inhibition of CXCR1/2 in human polymorphonucleate cells assessed as inhibition of CXCL8-induced chemotaxis at 10^-8 M incubated for 15 mins prior to CXCL8-induction measured after 45 mins
# Conditions: not given
row,Compound,inhibition
1,C[C@@H](C(=O)Nc1nc(C(F)(F)F)co1)c1ccc(OS(=O)(=O)C(F)(F)F)cc1,60%
2,C[C@@H](C(=O)Nc1nc(C(F)(F)F)cs1)c1ccc(OS(=O)(=O)C(F)(F)F)cc1,64%
3,C[C@@H](C(=O)Nc1nncs1)c1ccc(OS(=O)(=O)C(F)(F)F)cc1,54%
4,CC(C)ONC(=O)[C@H](C)c1ccc(OS(=O)(=O)C(F)(F)F)cc1,49%
5,C[C@@H](C(N)=O)c1ccc(OS(=O)(=O)C(F)(F)F)cc1,58%
